Experimental data taken from publication PMC4289246, “Dose-dependent effects of lesogaberan on reflux measures in patients with refractory gastroesophageal reflux disease: a randomized, placebo-controlled study” (BMC Gastroenterology, 2014).

Tests used:
[1] = test system: patients with GERD who had a partial response to PPI treatment; experiment: Safety and tolerability assessments; type: in vivo, human
Protocol: Sitting and orthostatic blood pressure and pulse rate were also assessed pre-dose and 2 h after the first dose of lesogaberan or placebo at each treatment visit. Patients ate meals (standardized primarily according to fat content and pH) approximately 1 h after each dose of study medication or placebo, and at the same time points during each study period. Patients were monitored for adverse events from the first dose administration until the follow-up visit 5–10 days after receiving the last dose. The active treatment period for each dose was defined as the time from the first dose of study drug to 24 h after the second dose of study drug in each treatment period. Patients also underwent active questioning to determine whether they experienced syncope, or feeling faint, lightheadedness, dizziness or paraesthesia before study treatment started and after removing the impedance–pH catheter. A 12-lead digital electrocardiogram (ECG) was scheduled at the screening visit, before and 2 h after the first dose of lesogaberan or placebo at each treatment visit, and at the follow-up visit. Blood and urine samples were taken at the pre-entry visit (full laboratory screen), and before and 24 h after the first dose of lesogaberan or placebo at each treatment visit (reduced laboratory screen) to assess clinical chemistry and haematology, and to screen for indications of drug abuse.
The efficacy evaluation of the different doses of lesogaberan was based on data from all patients not affected by major protocol deviations and violations relevant to the analysis of a specific variable. The safety analysis set comprised all patients who received at least one dose of lesogaberan or placebo, and for whom post-dose data were available.

[2] = test system: patients with a partial response to PPI treatment; parameters: method as in PMID 21402616; conditions: 65 mg twice daily add-on to PPIs, phase 2a; placebo 8%; cited from earlier work
[3] = test system: patients with GERD who had a partial response to PPI treatment; experiment: GERD symptoms recorded by data logger and diary card during 24-h measurement; type: in vivo, human
Protocol: Impedance–pH readings were analysed by one investigator (JP) using dedicated software (BioVIEW Analysis®, version 5.5.4; Sandhill Scientific Inc.) and were then checked manually. This was performed in a blinded manner and the results were used to determine the number of reflux episodes, defined as a period when impedance decreased to less than 50% of baseline (liquid episode) or increased to more than 150% of baseline (gas episode), propagating […] from the most distal channel. Acid, weakly acid and non-acid reflux episodes were defined as episodes lasting longer than 5 s with a pH of < 4, 4.0–6.5 and > 6.5, respectively. The decision to use a cautious cut-off pH of 6.5 was taken in order to ensure that no measurements near to a pH of 7 would be erroneously categorized as weakly acidic. These definitions have previously been employed for studies of this type. During the 24-h period of ambulatory impedance–pH measurement, patients used a data logger and a diary card to record their meal intake and periods in supine position, as well as any GERD symptoms.

[4] = 2 h after first dose, 30–240 mg

With `NC[C@@H](F)C[PH](=O)O` [lesogaberan, (R)-(3-amino-2-fluoropropyl) phosphinic acid] the “adverse events during active dosing” value ([1]; 90 mg twice in 24 h) was “one patient reported headache and nausea”, the ECG readings ([1]; 12-lead ECG before and 2 h after first dose) was “No clinically significant changes in ECG readings” and the “adverse events resulting in discontinuation” value ([1]; 30–240 mg twice in 24 h) was “no adverse events resulted in discontinuation”. For the same compound, the “serious adverse events during active dosing periods” value ([1]; 30–240 mg twice in 24 h, safety analysis set n = 27) was “No serious adverse events were reported”, the “blood pressure compared with placebo” value [1, 4] was “slight decreases in blood pressure” and the “pulse rate compared with placebo” value [1, 4] was “Slight increases in pulse rate”. For the same compound, the “proportion of responders (max one 24-h period with heartburn and/or regurgitation of not more than mild intensity during last 7 treatment days)” value [2] was 16%, the “median number of symptoms reported during dosing” value (from here on “median number”) ([3]; 30 mg twice in 24 h) was 1.0 symptom and the “median number” value ([3]; 90 mg twice in 24 h) was 1.0 symptom. For the same compound, the “median number” value ([3]; 120 mg twice in 24 h) was 0 symptoms and the “median number” value ([3]; 240 mg twice in 24 h) was 0.5 symptoms.
